Laboratory results: ChEMBL document CHEMBL1201862, “PubChem BioAssay data set” (2004)
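These data come from cells grown in 96-well plates and exposed to compound for 48 hours at five concentrations. GI50 marks 50% less growth.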 Calls of active or inactive are those of the source. Cut-off read from the data, not from the text of the source: active = GI50 up to about 1.1 µM and inactive = higher.

Assays:
Assay in all cases: NCI-60 cell line screen, 48 h
[1] = test system: PC-3
[2] = test system: SF-268
[3] = test system: SK-MEL-2
[4] = test system: HCT-116
[5] = test system: DU-145
[6] = test system: SK-MEL-5
[7] = test system: SN12C
[8] = test system: UO-31
[9] = test system: NCI-H522
[10] = test system: SNB-75
[11] = test system: Hs-578T
[12] = test system: BT-549
[13] = test system: UACC-257
[14] = test system: K562
[15] = test system: KM12
[16] = test system: HT-29
[17] = test system: A498
[18] = test system: CAKI-1
[19] = test system: OVCAR-8
[20] = test system: NCI-H226

Measured: GI50

O=C1C(O)=C(CC=C(Cl)Cl)C(=O)c2ccccc21
inactive: [1] 10.9 µM | [2] 11.7 µM | [3] 17.7 µM | [4] 1.36 µM | [5] 23.8 µM | [6] 8 µM | [7] 12.9 µM | [8] 20.7 µM | [9] 14 µM | [10] 50.6 µM | [11] 42.4 µM | [12] 18.3 µM | [13] 15.1 µM | [14] 1.82 µM | [15] 6.46 µM | [16] 4.6 µM | [17] 30 µM | [18] 23.1 µM | [19] 5.48 µM

O=c1oc2ccc3ccccc3c2cc1-c1nc2ccc([N+](=O)[O-])cc2o1
inactive: [1] > 100 µM | [2] 20.5 µM | [3] > 64.9 µM | [4] 48.6 µM | [5] > 58.6 µM | [6] 10.3 µM | [7] 97.5 µM | [8] > 49.2 µM | [9] 18.9 µM | [10] 14.8 µM | [11] 56.6 µM | [12] > 44.5 µM | [13] > 100 µM | [14] > 62.1 µM | [15] > 59.2 µM | [16] > 42.7 µM | [17] 38.5 µM | [20] > 51.2 µM | [18] > 44.7 µM | [19] > 100 µM

CCC(=O)C(CCN1CCC2(CCCc3ccccc32)CC1)(c1ccccc1)c1ccccc1
inactive: [1] 2.45 µM | [2] 5.92 µM | [3] 2 µM | [4] 1.42 µM | [5] 3.1 µM | [6] 1.49 µM | [7] 2.29 µM | [8] 2.39 µM | [9] 1.75 µM | [10] 2.95 µM | [11] 2.33 µM | [13] 2.05 µM | [14] 1.8 µM | [15] 1.79 µM | [17] 1.98 µM | [20] 2.05 µM | [18] 3.44 µM | [19] 3.66 µM
active: [12] 0.685 µM | [16] 0.993 µM

C(/Cc1ccc2c(c1)OCO2)=N\N=C1NCCCN1
inactive: [1] 36.3 µM | [2] 93.8 µM | [3] > 100 µM | [4] 46.2 µM | [5] 67.5 µM | [6] 25 µM | [7] 54.3 µM | [8] 38.2 µM | [9] 55.3 µM | [10] 15.2 µM | [11] > 100 µM | [12] 64.7 µM | [13] > 100 µM | [14] 35.1 µM | [15] > 100 µM | [16] 65.5 µM | [17] 19.5 µM | [20] > 100 µM | [19] > 100 µM

Cc1ccc2c(c1)C(=O)C1(C2)Cc2c(C)cccc2C1=O (stereo not given)
inactive: [1] > 100 µM | [2] > 100 µM | [4] > 100 µM | [5] > 100 µM | [6] > 100 µM | [7] > 100 µM | [8] > 100 µM | [9] > 100 µM | [10] > 100 µM | [11] > 100 µM | [12] > 100 µM | [13] > 100 µM | [14] > 100 µM | [15] > 100 µM | [16] > 100 µM | [17] > 100 µM | [20] > 100 µM | [18] > 100 µM | [19] > 100 µM

CCOC(=O)c1nc2cc(C(F)(F)F)ccc2nc1Nc1ccc(C(=O)OC)s1
inactive: [1] 30.7 µM | [2] 44.9 µM | [3] 19.4 µM | [4] 35.3 µM | [5] 54.6 µM | [6] 40.5 µM | [8] 33.3 µM | [9] 19.7 µM | [10] 56.1 µM | [11] 29.8 µM | [12] 25.7 µM | [13] 36.5 µM | [14] 31.6 µM | [15] 38.7 µM | [16] 37.1 µM | [17] 40.9 µM | [20] 27 µM | [18] 31.3 µM | [19] 41.2 µM

CC(C)(C)c1ccc(-c2nc3ccc([N+](=O)[O-])cc3c(=O)o2)cc1
inactive: [1] 21.2 µM | [2] 35.7 µM | [3] 20.7 µM | [4] 23.4 µM | [5] 32.7 µM | [6] 27.2 µM | [7] 40.1 µM | [8] 32.9 µM | [9] 20.1 µM | [10] 24.9 µM | [11] 25.2 µM | [12] 24.1 µM | [13] 29.6 µM | [14] 19.1 µM | [15] 20 µM | [16] 24.7 µM | [17] 29.9 µM | [18] 50.4 µM | [19] 20.9 µM
